Consider 14 molecules from patent US11261211B2, “19-NOR neuroactive steroids and methods of use thereof” (Sage Therapeutics, Inc., priority 2013, dated 2022).

The target in one assay is α1β2γ2 GABAA receptor (Homo sapiens (Human), UniProt P14867+P47870). Put plainly: Patch clamp electrophysiology of recombinant α1β2γ2 GABAA receptors in LTK cells. The settings on record: for activity at 10 µM / Emax: LTK; for activity at 10 µM / α1β2γ2 GABA Qpatch in Ltk (Efficacy at 10 μm): 10 μM compound, Qpatch, Ltk cells, GABA EC20 2 μM; for activity at 10 µM: read-out: α1β2γ2 GABA Qpatch in Ltk (Efficacy at 10 μm); for Emax / EC50: potentiation of GABA EC20 (2 μM) current; for Emax: read-out: GABAa alpha1 (α1β2γ2) Emax (%); for EC50: read-out: GABAa alpha1 (α1β2γ2)EC50. It is filed as cell-based. The method, boiled down:
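Whole-cell voltage clamp at −80 mV, room temperature, in LTK cells stably expressing α1β2γ2 or CHO cells transiently expressing α4β3δ, manual or QPatch. Test article (0.01–10 μM, increasing, 30 s preincubation) then 2 μM GABA (EC20) for 2 s; potentiation = peak current with compound relative to GABA alone ×100.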
In general terms: The patch-clamp technique gives a direct electrical read-out from membranes.

Another assay has as its target α4β3δ GABAA receptor (Homo sapiens (Human), UniProt P28472+P48169). Put plainly: Patch clamp electrophysiology of recombinant α4β3δ GABAA receptors in CHO cells. It is filed as cell-based. The settings on record: 10 μM compound, GABA EC20 2 μM; for activity at 10 µM: manual patch, read-out: α4β3δ GABA Manual Patch in CHO (Efficacy at 10 μM). Here is the method:
Cellular electrophysiology is used to measure the pharmacological properties of our GABAA receptor modulators in heterologous cell systems. Each compound is tested for its ability to affect GABA mediated currents at a submaximal agonist dose (GABA EC20=2 μM). LTK cells are stably transfected with the α1β2γ2 subunits of the GABA receptor and CHO cells are transiently transfected with the α4β3δ subunits via the Lipofecatamine method. Cells were passaged at a confluence of about 50-80% and then seeded onto 35 mm sterile culture dishes containing 2 ml culture complete medium without antibiotics or antimycotics. Confluent clusters of cells are electrically coupled (Pritchett et al., 1988). Because responses in distant cells are not adequately voltage clamped and because of uncertainties about the extent of coupling (Verdoorn et al., 1990), cells were cultivated at a density that enables the recording of single cells (without visible connections to other cells).
Whole cell currents were measured with HEKA EPC-10 amplifiers using PatchMaster software or by using the high throughput QPatch platform (Sophion). Bath solution for all experiments contained (in mM): NaCl 137 mM, KCl 4 mM, CaCl2 1.8 mM, MgCl2 1 mM, HEPES 10 mM, D-Glucose 10 mM, pH (NaOH) 7.4. In some cases 0.005% cremophor was also added. Intracellular (pipette) solution contained: KCl 130 mM, MgCl2 1 mM, Mg-ATP 5 mM, HEPES 10 mM, EGTA 5 mM, pH 7.2. During experiments, cells and solutions were maintained at room temperature (19° C.-30° C.). For manual patch clamp recordings, cell culture dishes were placed on the dish holder of the microscope and continuously perfused (1 ml/min) with bath solution. After formation of a Gigaohm seal between the patch electrodes and the cell (pipette resistance range: 2.5 MΩ-6.0 MΩ; seal resistance range: >1 GΩ) the cell membrane across the pipette tip was ruptured to assure electrical access to the cell interior (whole-cell patch-configuration). For experiments using the QPatch system, cells were transferred as suspension to the QPatch system in the bath solution and automated whole cell recordings were performed.
Cells were voltage clamped at a holding potential of −80 mV. For the analysis of test articles, GABA receptors were stimulated by 2 μM GABA after sequential pre-incubation of increasing concentrations of the test article. Pre-incubation duration was 30 s and the duration of the GABA stimulus was 2 s. Test articles were dissolved in DMSO to form stock solutions (10 mM). Test articles were diluted to 0.01, 0.1, 1, and 10 μM in bath solution. All concentrations of test articles were tested on each cell. The relative percentage potentiation was defined as the peak amplitude in response to GABA EC20 in the presence of the test article divided by the peak amplitude in response to GABA EC20 alone, multiplied by 100.

Take `C[C@]12CC[C@H]3[C@@H](CC[C@H]4C[C@@](O)(CF)CC[C@@H]43)[C@@H]1CC[C@@H]2C(=O)Cn1nc2ccncc2n1` [SB-15]: the activity at 10 µM on α1β2γ2 GABAA receptor and at α4β3δ GABAA receptor was 100 to 500% throughout.

As to `C[C@@]1(O)CC[C@H]2[C@H](CC[C@@H]3[C@@H]2CC[C@]2(C)[C@@H](C(=O)Cn4nc5cccnc5n4)CC[C@@H]32)C1` [SA-14], the activity at 10 µM at α1β2γ2 GABAA receptor was greater than 500%; at α4β3δ GABAA receptor, 100 to 500%.

Consider `C[C@@]1(O)CC[C@H]2[C@H](CC[C@@H]3[C@@H]2CC[C@]2(C)[C@@H](C(=O)Cn4cc5cc(F)ccc5n4)CC[C@@H]32)C1` [SA-16], for which the activity at 10 µM on α1β2γ2 GABAA receptor is greater than 500%; on α4β3δ GABAA receptor it was 100 to 500%.

With `C[C@@]1(O)CC[C@H]2[C@H](CC[C@@H]3[C@@H]2CC[C@]2(C)[C@@H](C(=O)Cn4nc5ccccc5n4)CC[C@@H]32)C1` [SA-2], on α1β2γ2 GABAA receptor, the activity at 10 µM is 100 to 500%; the Emax – broadly, the greatest response seen or fitted, relative to the assay's reference – was 0 to 500%; the EC50 – broadly, the concentration at which the effect is half-maximal – lay within 500 to 1000 nM. Further, the activity at 10 µM at α4β3δ GABAA receptor is greater than 500%.

With `C[C@@]1(O)CC[C@H]2[C@H](CC[C@@H]3[C@@H]2CC[C@]2(C)[C@@H](C(=O)Cn4cc5cncnc5n4)CC[C@@H]32)C1` [SA-35], the values for the activity at 10 µM on α1β2γ2 GABAA receptor and on α4β3δ GABAA receptor were 100 to 500% and greater than 500%, respectively.

For `C[C@@]1(O)CC[C@H]2[C@H](CC[C@@H]3[C@@H]2CC[C@]2(C)[C@@H](C(=O)Cn4nc5cc(Cl)cnc5n4)CC[C@@H]32)C1` [SA-57], the activity at 10 µM was greater than 500% on α1β2γ2 GABAA receptor and 100 to 500% on α4β3δ GABAA receptor.

As for `C[C@@]1(O)CC[C@H]2[C@H](CC[C@@H]3[C@@H]2CC[C@]2(C)[C@@H](C(=O)Cn4cc5ncc(Cl)cc5n4)CC[C@@H]32)C1` [SA-26], the activity at 10 µM on α1β2γ2 GABAA receptor was greater than 500%; on α4β3δ GABAA receptor, 100 to 500%.

Consider `C[C@@]1(O)CC[C@H]2[C@H](CC[C@@H]3[C@@H]2CC[C@]2(C)[C@@H](C(=O)Cn4cc5c(n4)CCCC5)CC[C@@H]32)C1` [SA-7], for which, on α1β2γ2 GABAA receptor, the “α1β2γ2 GABA Qpatch in Ltk (Efficacy at 10 μm)” value (from here on “α1β2γ2 GABA Qpatch in Ltk”) was “B (“B” indicates an efficacy value of >100-500%)”. The “α4β3δ GABA Manual Patch in CHO (Efficacy at 10 μM)” value (from here on “α4β3δ GABA Manual Patch in CHO”) on α4β3δ GABAA receptor is given as “B (“B” indicates an efficacy value of >100-500%)”.

For the molecule `C[C@@]1(O)CC[C@H]2[C@H](CC[C@@H]3[C@@H]2CC[C@]2(C)[C@@H](C(=O)Cn4cc5ncccc5n4)CC[C@@H]32)C1` [SA-4], on α1β2γ2 GABAA receptor, the “α1β2γ2 GABA Qpatch in Ltk” value is recorded as “C (“C” indicates an efficacy value of >500%)”, the Emax was 500 to 1000% and the concentration giving a half-maximal response (EC50) was in the range of 1000 to 2000 nM. Besides, the “α4β3δ GABA Manual Patch in CHO” value at α4β3δ GABAA receptor is recorded as “B (“B” indicates an efficacy value of >100-500%)”.

Turning to `Cc1ccc2nn(CC(=O)[C@H]3CC[C@H]4[C@@H]5CC[C@@H]6C[C@](C)(O)CC[C@@H]6[C@H]5CC[C@]34C)nc2c1` [SA-44], the activity at 10 µM at α1β2γ2 GABAA receptor and on α4β3δ GABAA receptor was 100 to 500% each time.

On to `C[C@]12CC[C@H]3[C@@H](CC[C@H]4C[C@@](O)(CF)CC[C@@H]43)[C@@H]1CC[C@@H]2C(=O)Cn1cc2ccc(F)cc2n1` [SG-20], for which the activity at 10 µM on α1β2γ2 GABAA receptor and at α4β3δ GABAA receptor was 100 to 500% in each case.

For the molecule `C[C@@]1(O)CC[C@H]2[C@@H](CC[C@@H]3[C@@H]2CC[C@]2(C)[C@@H](C(=O)Cn4cc5ncccc5n4)CC[C@@H]32)C1` [SB-4], at α1β2γ2 GABAA receptor, the “α1β2γ2 GABA Qpatch in Ltk” value was “C (“C” indicates an efficacy value of >500%)”. The “α4β3δ GABA Manual Patch in CHO” value at α4β3δ GABAA receptor is “C (“C” indicates an efficacy value of >500%)”.

Turning to `Cc1cccc2nn(CC(=O)[C@H]3CC[C@H]4[C@@H]5CC[C@@H]6C[C@](C)(O)CC[C@@H]6[C@H]5CC[C@]34C)nc12` [SA-69], the activity at 10 µM on α1β2γ2 GABAA receptor and at α4β3δ GABAA receptor was 100 to 500% throughout.

`C[C@@]1(O)CC[C@H]2[C@H](CC[C@@H]3[C@@H]2CC[C@]2(C)[C@@H](C(=O)Cn4cc5nccnc5n4)CC[C@@H]32)C1` [SA-28]: the activity at 10 µM on α1β2γ2 GABAA receptor and at α4β3δ GABAA receptor was 100 to 500% each time.
